Experimental data reported in US20090270431A1, “Cyclopentenol Nucleoside Compounds Intermediates for their Synthesis and Methods of Treating Viral Infections” (THE UNIVERSITY OF GEORGIA RESEARCH FOUNDATION, priority 2005, published 2009).
Several values for one entry are separate records, joined by “and”; a condition that tells them apart may be missing. Equal values may be shown once. Where a name gives a salt, the structure may show the parent alone. Read-outs that look alike come from different tables or passages of the source.

How the values were obtained:
RSV A = experiment: antiviral assay, RSV A in MA-104; format: cell-based; settings: human respiratory syncytial virus, MA104, RSV A
Flu A (H3N2) = experiment: microbe, parasite or virus in culture; format: cell-based
Adeno = experiment: antiviral assay, Adeno in A-549; format: cell-based; settings: unidentified adenovirus, A549, Adeno
HSV-2 = experiment: CPE assay, HSV-2 in HFF cells; format: cell-based, herpes simplex virus type 2; settings: Human alphaherpesvirus 2
Measles = experiment: antiviral assay, Measles in CV-1; format: cell-based; settings: Measles morbillivirus
HSV-1 = experiment: CPE assay, HSV-1 in HFF cells; format: cell-based, herpes simplex virus type 1; settings: Human alphaherpesvirus 1
PIV = experiment: antiviral assay, PIV in MA-104; format: cell-based, parainfluenza virus
Rhinovirus = experiment: antiviral assay, Rhinovirus in HeLa Ohio-1; format: cell-based; settings: Enterovirus, HeLa Ohio1, RV, HO-1
Hepatitis B Virus = experiment: in vitro anti-HBV activity, VIR (extracellular virion HBV DNA); format: cell-based; settings: HBV, VIR, Huh7 ET (Table 3)
Protocol: In the first biological experiment, a number of 7-deazaneplanocin compounds were tested in vitro to determine activity against hepatitis B virus (HBV).

Vaccinia = experiment: microbe, parasite or virus in culture; format: cell-based, vaccinia virus
HCV RNA replicon = HCV RNA replicon assay; format: cell-based, hepatitis C virus (HCV); settings: Hepatitis C virus, Huh7 ET, HCV; HRR (HCV RNA replicon); Huh7 ET; read-out: EC50
Protocol: A number of […] 7-deazaneplanocin compounds were tested in vitro to determine activity against hepatitis C virus (HCV).

Cowpox = experiment: microbe, parasite or virus in culture; format: cell-based, cowpox virus
Flu A (H1N1) = experiment: microbe, parasite or virus in culture; format: cell-based
SARS = experiment: organism not typed; format: cell-based; settings: Vero 76
Flu A = experiment: organism not typed; format: cell-based
HCMV = experiment: CPE assay, HCMV in HFF cells; format: cell-based, human cytomegalovirus; settings: Human betaherpesvirus 5
VZV = experiment: CPE assay, VZV in HFF cells; format: cell-based, varicella zoster virus; settings: Human alphaherpesvirus 3
Flu A (H5N1) = experiment: microbe, parasite or virus in culture; format: cell-based
Yellow Fever = experiment: organism not typed; format: cell-based; settings: Vero
VEE = format: cell-based
Dengue = experiment: antiviral assay, Dengue in Vero; format: cell-based
RVF = format: cell-based
Flu B = format: cell-based; settings: MDCK
Tacaribe = format: cell-based; settings: Vero 76

Nc1nccc2c1ncn2[C@@H]1C=C(CO)[C@@H](O)[C@H]1O [Compound 3-DNPA, (−)-1-[(1R,4R,5S)-3-(Hydroxymethyl)-4,5-dihydroxy-2-cyclopenten-1-yl]-4-aminoimidazo[4,5-c]pyridine Hydrochloride]
EC50 (RSV A; NR): 4 µM
EC50 (RSV A; Visual): 100 µM
EC50 (Flu A (H3N2); Flu A (H3N2), Visual, MDCK): > 100 µM
EC50 (Flu A (H3N2); Influenza A virus, H3N2, MDCK): > 100 µM
EC50 (Adeno; NR): 17 µM
EC50 (Adeno; Visual): 24 µM
EC50 (HSV-2): 43.5 µM
EC50 (Measles; NR): 0.4 µM
EC50 (Measles; Visual): 0.9 µM
EC50 (HSV-1): > 300 µM
EC50 (PIV; MA104, NR): > 100 µM
EC50 (PIV; Visual): > 100 µM
EC50 (Rhinovirus; NR): 4 µM
EC50 (Rhinovirus; Visual): 32 µM
EC50 (Hepatitis B Virus; Hepatitis B virus): 0.59 µM
EC50 (Vaccinia; Orthopoxvirus vaccinia, HFF): 2.9 µM
EC50 (HCV RNA replicon): 1.44 µM
EC50 (Cowpox; Cowpox virus, HFF): 182 µM
EC50 (Flu A (H1N1); Influenza A virus, H1N1, MDCK, NR): > 25 µM
EC50 (Flu A (H1N1); Influenza A virus, H1N1, MDCK, Visual): > 100 µM
EC50 (SARS; SARS, Visual): > 100 µM
EC50 (SARS): > 100 µM
EC50 (Flu A): > 100 µM
EC50 (HCMV): 0.36 µM
EC50 (VZV): > 300 µM
EC50 (Flu A (H5N1); Flu A (H5N1), Visual, MDCK): > 100 µM
EC50 (Flu A (H5N1); Influenza A virus, H5N1, MDCK): > 100 µM
EC50 (Yellow Fever): > 100 µM
EC50 (Yellow Fever; YF, Visual): > 100 µM

Nc1nccc2ncn([C@@H]3C=C(CO)[C@@H](O)[C@H]3O)c12 [Compound N7-3-DNPA]
EC50 (Flu A (H3N2); Flu A (H3N2), NR, MDCK, read-out: EC50): > 32 µM
EC50 (Flu A (H3N2); Flu A (H3N2), Visual, MDCK, read-out: EC50): > 32 µM
EC50 (Hepatitis B Virus): > 10 µM
EC50 (Vaccinia; VV, CPE, HFF Cells (Table 3), read-out: EC50): > 300 µM
EC50 (VEE): 84.6 µM and > 100 µM
EC50 (Dengue; NR): > 100 µM
EC50 (Dengue; Visual): > 100 µM
EC50 (RVF): > 100 µM
EC50 (Flu B; NR): 34 µM
EC50 (Flu B; Visual): 8 µM
EC50 (Tacaribe; NR): 85 µM
EC50 (Tacaribe; Visual): 52 µM
EC50 (Cowpox; Cowpox, CPE, HFF Cells (Table 3), read-out: EC50): 273 µM
EC50 (Flu A (H1N1); NR, MDCK, read-out: EC50): > 32 µM
EC50 (Flu A (H1N1); Visual, MDCK, read-out: EC50): > 32 µM
EC50 (SARS; SARS, NR (Neutral Red), read-out: EC50): > 100 µM
EC50 (SARS; SARS, Visual, read-out: EC50): > 100 µM
EC50 (Flu A (H5N1); Flu A (H5N1), NR, MDCK, read-out: EC50): 29 µM
EC50 (Flu A (H5N1); Flu A (H5N1), Visual, MDCK, read-out: EC50): 32 µM
EC50 (Yellow Fever; YF, NR, read-out: EC50): > 100 µM
EC50 (Yellow Fever; YF, Visual, read-out: EC50): > 100 µM
